{"source": "patent US20250339443A1", "about": "“METHOD FOR TREATING OR PREVENTING CALCIUM RELEASE-ACTIVATED CALCIUM CHANNEL OR DISCOIDIN DOMAIN RECEPTOR 2 RELATED DISORDERS OR CONDITIONS” (LumiSTAR Biotechnology, Inc., priority 2023, published 2025)", "system": "obstruction-induced persistent progression of renal fibrosis", "assay": "Reversible unilateral ureteral obstruction (RUUO) model", "format": "in vivo, mouse", "excerpt": "FIG. 6A illustrates a diagram depicting the timeline of operations and drug delivery. The left ureter was surgically ligated (UUO-L) for 7 days, after which it was re-connected to the bladder (RUUO-L). Various compounds, including DMSO (control), WRG-28, and Av, were intraperitoneally injected daily during ureter ligation (UUO-L) period. After following RUUO-L for an additional 13 days, the right ureter was ligated (UUO-R). Subsequently, mice were housed in metabolic cages on the day after surgery (day 21). On day 22, the left kidneys were removed for further analysis to evaluate kidney function. […] FIG. 6C illustrates the measurement of the Sirius red-positive area in each group, conducted by using Image J from 5-10 images. The protein levels of integrin β1, collagen 1a1, DDR2, α-SMA, E-cadherin, SGLT2, NHE1, and β-actin were assessed in mice treated with WRG-28 (FIG. 6D) and Av (FIG. 6F) using Western blot analysis. Relative protein levels were quantified using Image J (FIG. 6E and FIG. 6G). Each bar represents mean±SEM. In all the graphs, *, **, and *** denote p-values of <0.05, 0.01, and 0.001, respectively.\nThe left ureter was surgically ligated (UUO-L) for 7 days, after which it was re-connected to the bladder (RUUO-L). Various compounds, including DMSO (control), WRG-28, and Av were intraperitoneally injected for 13 days after the release of left ureter ligation (during RUUO-L period). After 13 days of RUUO-L, the right ureter was ligated (UUO-R). Subsequently, the mice were housed in metabolic cages on the following day of surgery (day 21). On day 22, the left kidneys were removed for further analysis. […] FIG. 7C illustrates the measurement of the Sirius red-positive area in each group using Image J from 5-10 images. The protein levels of integrin β1, collagen 1a1, DDR2, […] were assessed in mice treated with WRG-28 (FIG. 7D) and Av (FIG. 7F) using Western blot analysis. The relative protein levels were measured and quantified using Image J (FIG. 7E and FIG. 7G). Each bar represents the mean±SEM. In all the graphs, *, **, and *** denote p-values of <0.05, 0.01, and 0.001, respectively. NS denotes a p-value >0.05, indicating no significant difference between the two groups.\nFIG. 8A, FIG. 8B, FIG. 8C, FIG. 8D, FIG. 8E, FIG. 8F, FIG. 8G, and FIG. 8H illustrate how WRG-28 and Av restore epithelial differentiation and reduce collagen deposition and myofibroblast expansion in RUUO-induced persistent progression of renal fibrosis. The frozen tissue blocks were utilized for immunofluorescence staining. […] Laminin alpha 1 and collagen 1a1 were detected using primary antibodies, followed by secondary antibodies conjugated with Alexa-488 (green) and Alexa-594 (red), respectively. Hoechst 33258 (blue) was used for labeling nuclei. FIG. 8A-(ii) illustrates the fluorescent intensity of collagen 1a1 measured using Image J. Analysis was conducted on 5-10 areas from each of the 5 pictures, with each bar representing the mean±SEM. In FIG. 8A-(i), the thickness of laminin alpha 1 was measured using Image J by analyzing 5-10 areas from each of the 5-10 pictures. The median is marked by a solid line, while the quartiles are indicated by dotted lines. […] FIG. 8B-(iii) illustrates the fluorescent intensity of α-SMA, measured using Image J. Quantification was conducted on at least 5 areas from each of the 5 pictures, with each bar representing the mean±SEM. […] Additionally, Hoechst 33258 (blue) was used for labeling nuclei. FIG. 8C-(iv) illustrates the quantification of apical membrane expression of SGLT2 in SGLT2 positive cells for each condition. Analysis was conducted on at least 5 pictures from each condition, with each bar representing the mean±SEM. […] Hoechst 33258 (blue) was used to label nuclei. The expressions of DDR2 (FIG. 8D-(v)) and AQP1 (FIG. 8D-(vi)) were analyzed and quantified based on 5-8 pictures from each condition. Each bar in the figures represents the mean±SEM. […]", "key": {"[1]": {"conditions": "serum, compared to DMSO-treated mice, 7*/15d or 7/15*d"}, "[2]": {"conditions": "treated after release of obstruction (7/15*d), Western blot"}, "[3]": {"conditions": "treated after the obstruction was released (7/15*d)"}, "[4]": {"conditions": "treated during obstruction (7*/15d)"}, "[5]": {"conditions": "treated during obstruction (7*/15d), Western blot"}}, "data": [{"compound": "CCNS(=O)(=O)c1ccc(COc2ccc3nc4ccc(=O)cc-4oc3c2)cc1", "note": "[WRG-28]", "values": [{"measurement": "expression of DDR2 (immunofluorescence)", "setting": "RUUO, compared to the DMSO-treated group", "value": "reduced"}, {"measurement": "apical membrane expression of SGLT-2", "setting": "RUUO, immunofluorescence", "value": "reversed"}, {"measurement": "atrophic tubules", "setting": "RUUO, immunofluorescence", "value": "fewer"}, {"measurement": "accumulation of collagen 1a1 (immunofluorescence)", "setting": "RUUO, vs DMSO treated group", "value": "mitigated"}, {"measurement": "expression of α-SMA (immunofluorescence)", "setting": "RUUO, vs DMSO treated group", "value": "markedly reduced"}, {"measurement": "level of BUN", "setting": "[1]", "value": "significantly reduced"}, {"measurement": "level of CRE", "setting": "[1]", "value": "significantly reduced"}, {"measurement": "kidney histology (H&E)", "setting": "treated 7 days during ureter obstruction (7*/15d)", "value": "preserved the intact tubular structure"}, {"measurement": "kidney histology (H&E) compared to DMSO-treated mice", "setting": "treated 13 days after release of obstruction (7/15*d)", "value": "numerous intact tubular structures, less inflammation and scar tissue"}, {"measurement": "collagen-positive area (Sirius red)", "setting": "treated after release of obstruction (7/15*d)", "value": "reduced"}, {"measurement": "downregulation of epithelial marker proteins, E-cadherin, SGLT2 and NHE1", "setting": "[2]", "value": "only partially reversed"}, {"measurement": "obstruction-induced upregulation of integrin β1, DDR2, collagen 1a1, and α-SMA", "setting": "[2]", "value": "alleviated"}, {"measurement": "number of apoptotic cells (TUNEL-positive cells)", "setting": "[3]", "value": "significantly reduced"}, {"measurement": "numbers of proliferating tubular cells (Ki67-positive cells)", "setting": "[3]", "value": "increased"}, {"measurement": "expansion of the fibrotic area (collagen-positive area, Sirius red)", "setting": "[4]", "value": "significantly reduced"}, {"measurement": "numbers of proliferating tubular cells (Ki67-positive)", "setting": "[4]", "value": "did not significantly differ"}, {"measurement": "proliferating interstitial cells (Ki67)", "setting": "[4]", "value": "more proliferating interstitial cells in DMSO treated mice"}, {"measurement": "expression of epithelial markers (E-cadherin, SGLT2, NHE1)", "setting": "[5]", "value": "significant increase"}, {"measurement": "expression of mesenchymal marker proteins (integrin β1, DDR2, collagen 1a1, α-SMA)", "setting": "[5]", "value": "significantly reduced"}, {"measurement": "apoptotic (TUNEL-positive) tubular cells", "setting": "treated during obstruction, obstruction released for 15 days (7*/15d)", "value": "only a few"}, {"measurement": "width of the basement membrane (laminin alpha 1 thickness)", "setting": "treated during the obstruction (7*/15d) or after its release (7/15*d), immunofluorescence", "value": "uniform and unchanging width"}]}]}
